# Measurements from patent US11554138B2, “Bismuth(III) complexes as adjuvants in the treatment of cancer using platinum-based chemotherapy” (THE UNIVERSITY OF HONG KONG, priority 2015, dated 2023).
# Columns and labels:
# [1] = test system: HK-2 (human kidney proximal tubular cell); assay: XTT cell proliferation assay, protection against cisplatin cytotoxicity, HK-2; assay type: cell-based
# Description: HK-2 cells treated with culture medium served as a control. The respective survival rate was measured by cell proliferation kit XTT. All data are in triplicates.
# (§1) To evaluate the in vitro protection effect of test bismuth(III) complexes against cisplatin stress, two nontumorigenic normal human cell lines, HK-2 (human kidney proximal tubular cell) and MIHA (human hepatocyte cell) are incorporated herein for cell proliferation kit II XTT assay.
# (§2) The XTT assay was carried out according to the manufacturer's instruction (Roche Diagnostics, USA). Typically, 1-2×10^4 cells per well were grown in flat-bottom 96-well plates at 37° C. for an overnight under a humidified atmosphere of 5% CO2. Cells pellets were washed with PBS and treated with bismuth(III) complexes at various concentrations (1-100 μM) for 2 hours prior to the exposure to cisplatin (10 μM and 100 μM for HK-2 and MIHA cell line, respectively) for 2 days. Cells grown under culture medium alone were used as a negative control. After a fixed incubation time, 50 μl of the XTT labeling mixture was added to each well and the cells were incubated for 2 hours. The formation of formazan dyes, produced only by metabolic active cells, was detected spectrophotometrically at 490 nm.
# testicular cancer = conditions: cited from earlier work
# [2] = test system: MIHA (human hepatocyte cell); assay: XTT cell proliferation assay, protection against cisplatin cytotoxicity, MIHA; assay type: cell-based
# Description: MIHA cells treated with culture medium served as a control. The respective survival rate was measured by cell proliferation kit XTT. All data are in triplicates.
# as §1, §2
# [3] = highly dependent on pH and ionic strength
# female BALB/c mice = assay: Survival of cisplatin-treated mice (cisplatin induced nephrotoxicity); assay type: in vivo; conditions: 50 mg/kg orally Day -2, -1, 0, 2, 4; cisplatin 30 mg/kg i.p. Day 0; n=8
# Description: FIG. 5 Provides survival curves of cisplatin-treated mice with pretreatment of Bi-L1, Bi-L12 and BicitZ, respectively, showing the protective role of bimusth(III) complexes on cisplatin induced nephrotoxicity. All bismuth complexes (50 mg/kg) were administered orally on Day −2, Day −1, Day 0, Day 2 and Day 4. Cisplatin (30 mg/kg) was I.P. injected on Day 0. […] (Log-rank (Mantel-Cox) test, ***P=0.0004)
# [4] = test system: SKNLP neuroblastoma cells; assay: Cisplatin anti-tumor activity in SKNLP neuroblastoma tumor-bearing mice
# Description: 0.2 Million SKNLP neuroblastoma cells transfected with luminescent plasmid were inoculated into the adrenal gland of SCID beige mice. […] Cisplatin (7.5 mg/kg) was i.p. injected at Day 0, Day 7 and Day 14. Tumor growth was monitored by luminescent of the transfected tumor cells.
# SKNLP neuroblastoma cells (˜2×10^5 cells) were transfected with luminescent plasmid were inoculated into the adrenal gland of BALB/c nude mice. […] Cisplatin (7.5 mg/kg) was i.p. injected on Day 0, and Day 7. Tumor growth was monitored by luminescent of the transfected tumor cells.
# To evaluate whether Bi(III) complexes affect cisplatin's in vivo anti-tumor activity, SKNLP neuroblastoma cells transfected with luminescent plasmid were implanted into mice.
Compound,"cells survived after exposure to cisplatin only ([1]; cisplatin 10 μM, 2 days)",overall cure rate (testicular cancer),"cells survived after exposure to cisplatin only ([2]; cisplatin 100 μM, 2 days)","increase of cell viability when co-treated with cisplatin ([1]; bismuth(III) complex 1-100 μM 2 hours prior to cisplatin 10 μM for 2 days, XTT) [%]",solubility of the complex in water [3],"increase of cell viability when co-treated with cisplatin ([2]; bismuth(III) complex 1-100 μM 2 hours prior to cisplatin 100 μM for 2 days, XTT) [%]",survival rate of cisplatin-treated mice (Kaplan-Meier) (female BALB/c mice),"effect on cisplatin's anti-cancer activity in tumor engrafted mice ([4]; SCID beige mice, oral 50 mg/Kg Day -1, 0 and every two days, cisplatin 7.5 mg/kg Day 0, 7, 14)","interference on cisplatin's chemotherapeutic effect ([4]; pretreatment at 100 mg/kg, cisplatin 7.5 mg/Kg, SCID beige tumor-bearing mice)","SKNLP tumor cells metastases in lung and liver (histology) ([4]; same experiments as FIG. 7 and FIG. 8, vs control and cisplatin alone)"
"N.N.[Cl][Pt][Cl] [cisplatin, cis-[PtCl2(NH3)2], reference compound]",Less than 40%,over 90%,Less than 40%,–,–,–,–,–,–,–
bismuth(III) zinc(II) citrate complex [BicitZ],–,–,–,16.7,over 100 mM,28.5,higher survival rate,negligible effects,no interference,delays SKNLP tumor cells metastases
